Laboratory results taken from patent publication EP0454459A2, “Sulfonylalkanoic acid amide derivatives” (TAISHO PHARMACEUTICAL CO. LTD, priority 1990, dated 1991).

Tests used:
male Wistar rats [1] = test: Inhibition test of anemic decerebrate rigidity; assay type: in vivo; settings: inhibition time of forelimb rigidity, intravenously, 5 mg/kg, dissolved in polyethlene glycol 400
Method: The rigidity animals were prepared according to the method of Fukuda et al. [Japanese J. Pharmacol., vol. 24, pages 810 - 813 (1974)].
Four male Wistar rats weighing 250 to 350 g were used for each group.
The animal was incised on the cervical region under the ethyl ether anesthesia, and the common carotid arteries were ligated bilaterally. A trephined opening was made in the occipital bone and the basilar artery was coagulated using a bipolar electro-coagulator. Marked rigidity occurred on the forelimbs after discontinuation of the ethyl ether anesthesia. The test drugs dissolved in polyethlene glycol 400 were each administered intravenously in a dose of 5 mg/kg (0.1 ml per 100 g of rat) to determine the inhibition time of the rigidity.

male ICR mice [2] = test: Straub tail test (morphine-induced tail elevation); assay type: in vivo; settings: orally 100 mg/kg, 15 mg/kg morphine hydrochloride s.c. after 15 minutes, tail elevation determined after 30 minutes, positive when angle less than 45°
Method: The test was carried out according to the method of Ellis et al. [Neuropharmacology, vol. 13, pages 211 - 214 (1974)]. Five male ICR mice weighing 20 to 30 g were used for each group. The test drugs suspended in 0.4% aqueous carboxymethylcellulose solution were administered orally in a dose of 100 mg/kg (0.1 ml per 10 g of mouse). After 15 minutes, 15 mg/kg of morphine hydrochloride was administered subcutaneously, and after 30 minutes, the tail elevation was determined. The muscle relaxation activity was defined as positive when the angle of tail elevation from the horizontal was less than 45°. As a result, the inhibition ratio of Compounds 2, 4 and 8 were each 100%.

male Wistar rats [3] = test: Inhibition test of the radiofrequency decerebrate rigidity; assay type: in vivo; settings: inhibition time of hindlimb rigidity, intravenously, 5 mg/kg, dissolved in propylene glycol
Method: The rigidity animals were prepared according to the method of Ono et al. [Gen. Pharm., vol. 18, pages 57 - 59 (1987)].
Four male Wistar rats weighing 250 to 350 g were used for each group. The animals were anesthetized with ethyl ether and fixed on a brain stereotaxic apparatus to break the midbrain bilaterally (APO, V-3, L±1.5). Rigidity occurred gradually in the hindlimbs after discontinuation of ethyl ether anesthesia. The test drugs dissolved in propylene glycol were administered intravenously in a dose of 5 mg/kg (0.1 ml per 100 g of rat) to determine the inhibition time of the rigidity.

male ICR mice [4] = test: Acute toxicity test; assay type: in vivo; settings: orally, dose of 1 g/kg, observed 7 days after administration
Method: (§1) Ten male ICR mice weighing 25 to 34 g were used. Compound 4 suspended in 0.4 aqueous carboxymethylcellulose solution was each administered orally to mice in a volume of 0.1 ml per 10 g of mice. The survivals were observed 7 days after administration.

Acute toxicity test = assay type: in vivo, ICR mice; settings: mouse, in vivo, po; mice; p.o.; survivals observed 7 days after administration; read-out: LD₅₀ value
Method: as §1

For `CC(C(=O)NC1CC1)S(=O)(=O)c1ccccc1Cl` (centres unmarked) [Compound 2, N-cyclopropyl-2-(2-chlorophenylsulfonyl)propionamide], the “Inhibition Time” value (male Wistar rats [1]) was 5.0 min, the inhibition ratio (male ICR mice [2]) was 100% and the “Inhibition Time” value (male Wistar rats [3]) was 11.7 min.

With `CC(C(=O)NC1CC1)S(=O)(=O)c1ccccc1Br` (centres unmarked) [Compound 4, N-cyclopropyl-2-(2-bromophenylsulfonyl)propionamide] the death (male ICR mice [4]) was “No death occurred”, the LD50 at 168 h (Acute toxicity test) was over 1000 mg/kg and the inhibition ratio (male ICR mice [2]) was 100%. The “Inhibition Time” value (male Wistar rats [3]) was 37.0 min.

For `CC(C(=O)NC1CC1)S(=O)(=O)c1ccc(Cl)cc1Cl` (centres unmarked) [Compound 8, N-cyclopropyl-2-(2,4-dichlorophenylsulfonyl)propionamide], the “Inhibition Time” value (male Wistar rats [1]) was 17.7 min, the inhibition ratio (male ICR mice [2]) was 100% and the “Inhibition Time” value (male Wistar rats [3]) was 78.0 min.

In the case of `CC(C(=O)NC1CC1)S(=O)(=O)c1ccc(F)cc1Cl` (centres unmarked) [Compound 11], the “Inhibition Time” value (male Wistar rats [3]) was 24.0 min.
